Source: patent publication US20220152224A1, “METHODS AND MATERIALS FOR TREATING CANCER” (priority 2019, published 2022)

System: GSK3β
Assay: Inhibition of GSK3β during Neurog2-induced neuronal conversion of U251 cells
Assay type: cell-based, human

Structure (SMILES) | neuronal conversion efficiency of Neurog2-infected U251 cells (CHIR99021 5 μM for 20 days) | neuronal conversion efficiency of Neurog2-infected U251 cells (TWS119 10 μM for 20 days)
Cc1c[nH]c(-c2cnc(NCCNc3ccc(C#N)cn3)nc2-c2ccc(Cl)cc2Cl)n1 [CHIR99021] | decreased neuronal conversion efficiency | –
Nc1cccc(-c2cc3c(Oc4cccc(O)c4)ncnc3[nH]2)c1 [TWS119] | – | decreased neuronal conversion efficiency
